How the values were obtained:
[1] = system: Z. bailii; assay: Inoculation (challenge) study in creamy salad dressing, acid-tolerant yeast Z. bailii; type: cell-based, Zygosaccharomyces bailii; conditions: for Treatment Performance Z. bailii LDIC (Log Difference in micro levels as compared to the Initial Count) / Treatment Performance Z. bailii LDPC (Log Difference in micro levels as compared to the Positive Control without treatment): creamy salad dressing emulsion; for Treatment Performance Z. bailii LDIC (Log Difference in micro levels as compared to the Initial Count): negative values represent a degree of inhibition; for Treatment Performance Z. bailii LDPC (Log Difference in micro levels as compared to the Positive Control without treatment): negative values represent degree of inhibition; for inhibition of Z. bailii (in words): Experiments 1-4
Source text: (§1) Turning now to the table, provided herein are formulations of a natural antimicrobial tested using a water continuous emulsion with a creamy texture and flavor, such as a creamy style salad dressing. It is noted that not only other types of water continuous emulsions, but also many other types of foods would also benefit from the antimicrobial nature of these formulations. As shown, the emulsion is standardized for a ratio of acid-to-moisture and salt-to-moisture values of a minimum of about 1.5 and about 4.8, respectively. When the emulsion was inoculated individually with cocktails of lactic acid bacteria, general yeast, or acid-tolerant yeast (such as Z. bailii) at approximately 4.0 logs, the emulsion spoils with microbial growth up to 7.0 logs. The overall pH of the present formulations can be anywhere from about 2.0 to about 6.0. Lower pH can often inhibit microbial growth, irrespective of other antimicrobial agents present. In the present formulations however, it was observed that the presence of antimicrobial agents such as cultured milks and/or organic acid salts were effective antimicrobial inhibitors, even at higher pH levels. High concentrations of undissociated organic acids can produce greater microbial inhibition. Increasing pH is associated with decreasing concentrations of undissociated acid. Thus, the microbial inhibition in a food that approaches a pH of 6.0 is unexpected.
(§2) The label LDPC indicates the Log Difference in micro levels as compared to the Positive Control without treatment (negative values represent degree of inhibition). The label LDIC indicates the Log Difference in micro levels as compared to the Initial Count or micro level of that treatment (negative values represent a degree of inhibition).
(§3) Two levels of Ca-Acetate alone and in combination with two levels of nisin and a nisin containing cultured ingredient were compared to determine their effect on typical spoilage (generic) yeast, the preservative resistant yeast, Z. bailii, and Lactobacillus.
(§4) Specifically, the samples were subjected to three different inocula (at log CFU 3-4) that contained microorganisms previously shown to spoil salad dressing. These included a cocktail of seven strains comprising various genera of yeast not known to be preservative resistant, a three strain cocktail of the preservative resistant Zygosaccharomyces bailii, and a three strain cocktail of Lactobacillus spp. (L. plantarum, L. fermentum, L. buchneri). The sample was then incubated at 22 degrees Celsius, and tested weekly for four weeks for the presence of these microorganisms.

[2] = system: Lactobacillus; assay: Inoculation (challenge) study in creamy salad dressing, Lactobacillus / lactic acid bacteria; type: cell-based, Lactobacillus spp. (L. plantarum, L. fermentum, L. buchneri); conditions: for Treatment Performance Lactobacillus LDIC (Log Difference in micro levels as compared to the Initial Count) / Treatment Performance Lactobacillus LDPC (Log Difference in micro levels as compared to the Positive Control without treatment): creamy salad dressing emulsion; for Treatment Performance Lactobacillus LDIC (Log Difference in micro levels as compared to the Initial Count): negative values represent a degree of inhibition; for Treatment Performance Lactobacillus LDPC (Log Difference in micro levels as compared to the Positive Control without treatment): negative values represent degree of inhibition
Source text: as §1, §2, §3, §4

[3] = system: Generic Yeast; assay: Inoculation (challenge) study in creamy salad dressing, generic yeast; type: cell-based; conditions: creamy salad dressing emulsion; for Treatment Performance Generic Yeast LDIC (Log Difference in micro levels as compared to the Initial Count): negative values represent a degree of inhibition; for Treatment Performance Generic Yeast LDPC (Log Difference in micro levels as compared to the Positive Control without treatment): negative values represent degree of inhibition
Source text: as §1, §2, §3, §4

[4] = system: Generic Yeast; assay: as above; type: cell-based; conditions: Experiments 1-4
[5] = system: Lactobacillus; assay: Inoculation (challenge) study in creamy salad dressing, Lactobacillus / lactic acid bacteria; type: cell-based, Lactobacillus spp. (L. plantarum, L. fermentum, L. buchneri); conditions: Experiments 1-4
[6] = listed as three percent Ca-Acetate
[7] = listed as Three percent Na-Acetate

Row | Compound | Treatment Performance Z. bailii LDIC (Log Difference in micro levels as compared to the Initial Count) [1] [Log] | Treatment Performance Z. bailii LDPC (Log Difference in micro levels as compared to the Positive Control without treatment) [1] [Log] | Treatment Performance Lactobacillus LDIC (Log Difference in micro levels as compared to the Initial Count) [2] [Log] | Treatment Performance Lactobacillus LDPC (Log Difference in micro levels as compared to the Positive Control without treatment) [2] [Log] | Treatment Performance Generic Yeast LDIC (Log Difference in micro levels as compared to the Initial Count) [3] [Log] | Treatment Performance Generic Yeast LDPC (Log Difference in micro levels as compared to the Positive Control without treatment) [3] [Log] | other results
1 | Nisin [Nisin (high)] | 2 | 0 | 0 | −2.5 | 3 | 1.5 | –
2 | CC(=O)[O-].CC(=O)[O-].[Ca+2] [3% Ca acetate, calcium (Ca) acetate] | 1.5 | 0.5 | −2.5 | −2.5 | −1 | −3 | inhibition of Z. bailii (in words) ([1]; listed as 3 percent Ca-Acetate): needed to inhibit; inhibition of Z. bailii (in words) [1, 6]: but not Z. bailii; Treatment Performance Z. bailii LDIC (Log Difference in micro levels as compared to the Initial Count) ([1]; listed as Ca acetate (high)): 0.5 Log; Treatment Performance Z. bailii LDPC (Log Difference in micro levels as compared to the Positive Control without treatment) ([1]; listed as Ca acetate (high)): −1.5 Log; inhibition of general yeast (in words) [4, 6]: inhibited the growth; inhibition of lactic acid bacteria / Lactobacillus (in words) ([2]; Experiments 1-4): inhibited the growth; Treatment Performance Lactobacillus LDIC (Log Difference in micro levels as compared to the Initial Count) ([2]; listed as Ca acetate (high)): 0.5 Log; Treatment Performance Lactobacillus LDPC (Log Difference in micro levels as compared to the Positive Control without treatment) ([2]; listed as Ca acetate (high)): 1.5 Log; Treatment Performance Generic Yeast LDIC (Log Difference in micro levels as compared to the Initial Count) ([3]; listed as Ca acetate (high)): −2 Log; Treatment Performance Generic Yeast LDPC (Log Difference in micro levels as compared to the Positive Control without treatment) ([3]; listed as Ca acetate (high)): −4 Log
3 | Nisin [Nisin (mid)] | 2 | 0 | −1 | −2.5 | 3.5 | 1.5 | –
4 | CC(=O)[O-].[Na+] [3% Na acetate, sodium (Na) acetate] | −0.5 | −2 | −3.5 | 0 | −3.5 | 0 | inhibition of Z. bailii (in words) ([1]; listed as 3 percent Na-Acetate): significant antimycotic inhibition; inhibition of Z. bailii (in words) [1, 7]: inhibited all of the tested spoilage organisms; Treatment Performance Z. bailii LDIC (Log Difference in micro levels as compared to the Initial Count) ([1]; listed as 3% Na Ac): −1 Log; Treatment Performance Z. bailii LDPC (Log Difference in micro levels as compared to the Positive Control without treatment) ([1]; listed as 3% Na Ac): −3 Log; inhibition of general yeast (in words) ([4]; listed as 3 percent Na-Acetate): did not inhibit; inhibition of general yeast (in words) [4, 7]: inhibited all of the tested spoilage organisms; inhibition of lactic acid bacteria / Lactobacillus (in words) ([5]; listed as 3 percent Na-Acetate): did not inhibit; inhibition of lactic acid bacteria / Lactobacillus (in words) [5, 7]: inhibited all of the tested spoilage organisms; Treatment Performance Generic Yeast LDIC (Log Difference in micro levels as compared to the Initial Count) ([3]; listed as 3% Na Ac): 1 Log; Treatment Performance Generic Yeast LDPC (Log Difference in micro levels as compared to the Positive Control without treatment) ([3]; listed as 3% Na Ac): −0.5 Log
5 | CC(=O)[O-].CC(=O)[O-].[Ca+2] [Ca acetate (mid), calcium (Ca) acetate] | 2 | 0.5 | −1.5 | −0.5 | −0.5 | −2.5 | inhibition of general yeast (in words) ([4]; listed as 1.5 percent Ca-Acetate): needed to inhibit

Reference: US20110053832A1, “NATURAL ANTIMICROBIAL COMPOSITION” (KRAFT FOODS GLOBAL BRANDS LLC, priority 2009, published 2011)
